We go through 3 compounds from patent publication US10350210B2, “EGFR and ALK dual inhibitor” (PRECEDO PHARMACEUTICALS CO., LTD, priority 2015, dated 2019).

Common to all, as to type: cell-based
The subject of experiment [1] is HCC827. In words: Growth of cancer cells (Cell Titer-Glo viability), HCC827. The following applies: Homo sapiens; HCC827 (mutant EGFR del19), 72 hrs. From the text:
(§1) By testing the effect of the novel kinase inhibitors on the proliferation of cancer cells, the selectivity of the compounds of the present disclosure in inhibiting the proliferation of cancer cells was further assessed. In this example, human non-small cell lung cancer cell NCI-H1975 (expressing EGFR L858R/T790M double mutant gene), human skin squamous carcinoma cell A431 (expressing wild-type EGFR gene), non-small cell lung cancer NCI-H3255 (expressing EGFR L858R mutant gene), non-small cell lung cancer cell NCI-H3122 (expressing ALK gene), human non-small cell lung cancer cell A549 (expressing wild-type EGFR gene), human non-small cell lung cancer cell NCI-H2122 (expressing wild-type EGFR gene), human non-small cell lung cancer cell NCI-H460 (expressing wild-type EGFR gene), human non-small cell lung cancer cell PC-9 (expressing EGFR delE746_A750 mutant gene), Chinese hamster ovary cell CHO (Cricetulus griseus, hamster, Chinese, ovary), Chinese hamster lung cell CHL, human non-small cell lung cancer cell HCC827 (expressing mutant EGFR del19 gene), human lung adenocarcinoma cell HCC4006 (expressing mutant EGFR del19 gene), human non-small cell lung cancer cell NCI-H2228 (expressing wild-type ALK gene), and mouse primary B cell BaF3 were used, and the above cells were all purchased from ATCC (US). In addition, mouse BaF3-TEL-ALK (stably expressing ALK kinase), mouse BaF3-ALK-F1174L (stably expressing mutant ALK F1174L kinase), mouse BaF3-NPM-ALK (stably expressing ALK kinase), mouse BaF3-TEL-EGFR (stably expressing EGFR kinase), mouse BaF3-TEL-EGFR-T790M (stably expressing EGFR T790M mutant kinase), mouse BaF3-FL-EGFR-Del19 (stably expressing EGFR delE746_A750 mutant kinase), mouse BaF3-TEL-EGFR-L858R (stably expressing EGFR L858R mutant kinase), mouse BaF3-FL-EGFR-T790M-L858R (stably expressing EGFR T790M/L858R mutant kinase), mouse BaF3-TEL-INSR (stably expressing INSR protein), mouse BaF3-TEL-IGF1R (stably expressing IGF1R Protein), mouse BaF3-EML4-ALK (stably expressing EML4-ALK Protein), mouse BaF3-TEL-JAK3 (stably expressing JAK3 kinase protein), mouse BaF3-TEL-CSF1R (stably expressing CSF1R protein), and mouse BaF3-TEL-ALK-F1196M (stably expressing ALK F1196M mutant kinase) were also used in this example. The above cell lines were all established by our laboratory via the following process: kinase proteins or protein domain sequences of human ALK, ALK F1174L, EGFR, EGFR T790M, EGFR delE746_A750, EGFR L858, EGFR T790M/L858R, INSR, IGF1R, EML4-ALK, JAK3, CSF1R, ALK F1196M were amplified respectively by PCR, and were respectively inserted into MSCV-Puro vector (Clontech) with N-terminal TEL fragments and/or NPM fragments and/or TPR fragments; the resultants were stably transfected into mouse BaF3 cells by the means of retrovirus, and the IL-3 growth factors were removed, and eventually the ALK, ALK F1174L, EGFR, EGFR T790M, EGFR delE746_A750, EGFR L858, EGFR T790M/L858R, INSR, IGF1R, EML4-ALK, JAK3, CSF1R, ALK F1196M-transferred protein dependent cell lines were obtained.
(§2) The number of viable cells was determined quantitatively by a microplate reader using Cell Titer-Glo® (Promega, US) chemiluminescence cell viability assay kit.

The subject of experiment [2] is NCI-H3122. In words: Growth of cancer cells (Cell Titer-Glo viability), NCI-H3122. The following applies: Homo sapiens; NCI-H3122 (expressing ALK gene), 72 hrs; read-out: GI50.
Source text: as §1, §2
On the technique in general: ATP-based viability assays read luminescence as a measure of living cells.

Experiment [3] has as its system BaF3-TEL-INSR. In words: Cell growth (Cell Titer-Glo viability), BaF3-TEL-INSR. The following applies: Mus musculus; BaF3-TEL-INSR (stably expressing INSR protein), 72 hrs.
Source text: as §1, §2

The subject of experiment [4] is BaF3-TEL-ALK. In words: Cell growth (Cell Titer-Glo viability), BaF3-TEL-ALK. The following applies: Mus musculus; BaF3-TEL-ALK (stably expressing ALK kinase), 72 hrs.
Source text: as §1, §2

Experiment [5] deals with PC-9. As to the kind of experiment: Growth of cancer cells (Cell Titer-Glo viability), PC-9. The following applies: Homo sapiens; PC-9 (EGFR delE746_A750 mutant), 72 hrs.
Source text: as §1, §2

In experiment [6] the test system is BaF3-NPM-ALK. In words: Cell growth (Cell Titer-Glo viability), BaF3-NPM-ALK. The following applies: Mus musculus; BaF3-NPM-ALK (stably expressing ALK kinase), 72 hrs.
Source text: as §1, §2

Experiment [7] has as its system BaF3. As to the kind of experiment: Cell growth (Cell Titer-Glo viability), BaF3. The following applies: BaF3 mouse primary B cell, 72 hrs.
Source text: as §1, §2

Experiment [8] deals with NCI-H1975. As to the kind of experiment: Growth of cancer cells (Cell Titer-Glo viability), NCI-H1975. The following applies: Homo sapiens; NCI-H1975 (EGFR L858R/T790M double mutant), 72 hrs.
Source text: as §1, §2

Experiment [9] deals with NCI-H3255. As to the kind of experiment: Growth of cancer cells (Cell Titer-Glo viability), NCI-H3255. The following applies: Homo sapiens; NCI-H3255 (EGFR L858R mutant), 72 hrs.
Source text: as §1, §2

In experiment [10] the test system is A549. In words: Growth of cancer cells (Cell Titer-Glo viability), A549. The following applies: Homo sapiens; A549 (wild-type EGFR), 72 hrs.
Source text: as §1, §2

For `C=CC(=O)Nc1cc(Nc2ncc(Cl)c(Nc3ccccc3P(C)(C)=O)n2)c(OC)cc1N1CCN(CC)CC1` [Compound 47, N-(5-(5-chloro-4-(2-(dimethylphosphinoyl)phenylamino)pyrimidin-2-ylamino)-2-(4-ethylpiperazin-1-yl)-4-methoxyphenyl)acrylamide], the GI50 (in general, the concentration giving 50% growth inhibition) in experiment [1] was under 0.3 nM; in experiment [2], 37 nM; in experiment [3], 72 nM; in experiment [4], 74 nM; in experiment [5], 5 nM; in experiment [6] it was 310 nM. The concentration for 50% growth inhibition (GI50) in experiment [7] was over 10000 nM; in experiment [8], 26 nM; in experiment [9] it was 140 nM; in experiment [10], 1700 nM.

As to `C=CC(=O)Nc1cc(Nc2ncc(Cl)c(Nc3ccccc3P(C)(C)=O)n2)c(OC)cc1N1CCC(N2CCCCC2)CC1` [Compound 48, N-(5-(5-chloro-4-(2-(dimethylphosphinoyl)phenylamino)pyrimidin-2-ylamino)-4-methoxy-2-(4-(piperidin-1-yl)piperidin-1-yl)phenyl)acrylamide], the 50% growth inhibitory concentration (GI50) is 5 nM in [1]; 78 nM in [2]; 290 nM in experiment [3]; 190 nM in [4]; 32 nM in experiment [5]; 380 nM in [6]. For the same compound, the concentration for 50% growth inhibition (GI50) amounted to 5300 nM in [7], 41 nM in experiment [8], 200 nM in experiment [9] and 5300 nM in [10].

For the compound `C=CC(=O)Nc1cc(Nc2ncc(Cl)c(Nc3ccccc3P(C)(C)=O)n2)c(OC)cc1N1CCC(N(C)C)CC1` [Compound 49, N-(5-(5-chloro-4-(2-(dimethylphosphinoyl)phenylamino)pyrimidin-2-ylamino)-2-(4-(dimethylamino)piperidin-1-yl)-4-methoxyphenyl)acrylamide], the GI50 came out at 15 nM in experiment [1]; 140 nM in experiment [2]; 920 nM in experiment [3]; 450 nM in [4]; 120 nM in [5]; 600 nM in [6]. Moreover, the GI50 in [7] was over 10000 nM; in experiment [8] it was 220 nM; in experiment [9] it was 350 nM; in [10] it was 8600 nM.
